Assay results published in article PMC6287197, “Eukaryotic Cell Toxicity and HSA Binding of [Ru(Me4phen)(bb7)]^2+ and the Effect of Encapsulation in Cucurbit[10]uril” (Frontiers in Chemistry, 2018).
Like-named read-outs stand apart in the source and are kept apart here.

How the values were obtained:
[1] = test system: BHK (baby hamster kidney) cell line; test: MTT toxicity assay against BHK cells; assay type: cell-based
Procedure: (§1) BHK (baby hamster kidney); Caco-2 (heterogeneous human epithelial colorectal adenocarcinoma); and Hep-G2 (liver carcinoma). All cell lines were cultured in 75 mL culture flasks in DMEM culture media (Dulbecco's Modified Eagle's Medium, Gibco, Thermo Fisher, UK) supplemented with 10% fetal bovine serum (Gibco, Thermo Fisher, UK), 1% MEM Non-Essential Amino Acid (Sigma, UK) and 1% penicillin-streptomycin (Sigma) at 37°C in an atmosphere of 5% humidified CO2. Cells used in the study were in the logarithmic growth phase, and unless stated were grown to 70% confluence, and then trypsinized with 0.5% trypsin-EDTA (Gibco, Canada) for detachment and use in the assays. […] The cells were cultured in 96-well microtiter plates containing the respective media to a cell density of 3,000 per well at 37°C in an atmosphere of air containing 5% CO2. Cell viability was assessed after continuous exposure to various concentrations of drugs (ranging from 0.5 to 400 μM) for 24 and 48 h. Cisplatin served as a treatment evaluation standard. […] The amount of MTT reduced to formazan within the cells was quantified by measuring the absorbance at λ = 570 nm using a Fluostar Galaxy Microplate Reader. The average values presented are based on at least three independent experiments. The IC50 values were determined using GraphPad Prism 7.0 (GraphPad Software, San Diego, USA).

[2] = test system: Hep-G2 (human hepatocellular carcinoma) cell line; test: MTT toxicity assay against Hep-G2 cells; assay type: cell-based
Procedure: as §1

[3] = test system: Caco-2 (human epithelial colorectal adenocarcinoma) cell line; test: MTT toxicity assay against Caco-2 cells; assay type: cell-based
Procedure: as §1, with “h.” for “h. Cisplatin served as a treatment evaluation standard.”

[4] = molecular target: T1, human serum albumin (HSA) (Homo sapiens, UniProt P02768); test: HSA binding by tryptophan fluorescence quenching; details: for Kapp (apparent HSA binding constant) / binding number n for HSA binding: [Ru complex]/[HSA] ratio 0 to 2.4, 0.1 M sodium phosphate pH 7.4
T1 construct: purchased Sigma-Aldrich
Procedure: All solutions used in the protein binding studies were dissolved in a 0.1 M sodium phosphate buffer (pH = 7.4). Protein solutions (5 μM) were titrated with the ruthenium complexes from 2 mM stock solutions, from a metal complex/protein ratio of 0.0 to 8.0. […] All experiments were carried out in triplicate, with results presented as mean and standard deviation.
The static quenching via binding of the ruthenium complexes to HSA can be represented as: nRu+HSA→nRu⋯ HSA where nRu…HSA denotes the quenched ruthenium complex/HSA species. A double-logarithm equation of log10[(F0-F)/F] vs. log10[Ru] can then be used to express the equilibrium between the free and bound ruthenium(II) complex to determine the apparent binding constant (Kapp) and the binding number (n) (Krause-Heuer et al., [2012]). log [F0-F/F]=log10Kapp+nlog10[Ru]
It was not possible to determine a single apparent HSA binding constant, as a linear relationship was not observed over the entire concentration range of added ruthenium complex in the plot of log10[(F0 – F)/F] vs. log10[Ru]. However, two distinct linear sections could be found in the analysis of the double logarithm, corresponding to ruthenium complex to HSA ratios of (a) 0 to 2.4 and (b) 2.4 to 8. As previously observed (Li et al., [2013b]), the two binding ratio regions represent an initial 1:1 binding at low ruthenium complex concentration (ratios 0–2.4), and then upon addition of further ruthenium complex, a region (2.4–8) where multiple ruthenium complexes (≥ 2:1) are bound to HSA. The higher affinity 1:1 HSA binding constant Kapp and the binding numbers n for the ruthenium complexes determined at low ratios of added ruthenium complex are summarized in Table 2.

[5] = test system: eukaryotic cells (BHK, Hep-G2, Caco-2); test: Toxicity to the panel of eukaryotic cell lines (comparisons); assay type: cell-based
Procedure: as §1

[6] = set-up: method as in Sun et al., 2018; details: ref Sun et al., 2018; cited from earlier work
[7] = test system: Gram-positive and Gram-negative bacteria; details: 2018, cited from earlier work; for MIC: Gram-positive and Gram-negative bacteria, ref Gorle et al., 2015, Sun et al.
[8] = test system: BHK cells; test: Confocal microscopy of cellular accumulation in BHK cells; assay type: cell-based, hamster
Procedure: The trypsinized BHK cells were seeded on sterile, poly L-lysine coated, coverslips in a 24-well plate. The ruthenium complex was applied to the cells in growth media to make the desired concentration (25 μM) and incubated at 37°C with 5% CO2 for 1 h. Following the incubation, 100 nM Mitotracker® Green FM (Invitrogen) was added for mitochondrial staining. Staining was carried out in DMEM medium under standard cultivation conditions as per the manufacturer's instructions. Following staining, the coverslips were gently rinsed with phosphate buffer solution (PBS, pH = 7.1) prior to confocal laser scanning microscopy.
The cellular accumulation of the ruthenium complex was determined using a laser scanning confocal microscope (FV3000, Olympus). Samples were viewed under 60× silicone immersion using the following excitation (λex) and emission (λem) wavelengths. Ruthenium complex (λex = 450 nm, λem = 630 nm) and Mitotracker Green FM (λex = 490 nm, λem = 516 nm) were excited using a blue argon laser (λex = 488 nm), and emissions were collected at λ = 600–650 nm for the ruthenium complex and λ = 500–550 nm for Mitotracker Green. […] The luminescence intensity of cis-α-[Ru(Me4phen)(bb7)]^2+ inside the BHK cells was quantified using the surface rendering function of Imaris 9.2.1 software, and the data analyzed for statistical difference using the Wilcoxon-test and t-test methods.

[9] = molecular target: T1, human serum albumin (HSA); set-up: method as in Li et al., 2013b; details: ref Li et al., 2013b; cited from earlier work
[10] = set-up: method as in Li et al., 2017; details: mice, ref Li et al., 2017; cited from earlier work
[11] = 24-h incubation, read-out: IC50 BHK 24 h
[12] = 48-h incubation, read-out: IC50 BHK 48 h
[13] = 24-h incubation, read-out: IC50 Hep-G2 24 h
[14] = 48-h incubation, read-out: IC50 Hep-G2 48 h
[15] = 24-h incubation, read-out: IC50 Caco-2 24 h
[16] = 48-h incubation, read-out: IC50 Caco-2 48 h

T1 sequence (P02768 25-609): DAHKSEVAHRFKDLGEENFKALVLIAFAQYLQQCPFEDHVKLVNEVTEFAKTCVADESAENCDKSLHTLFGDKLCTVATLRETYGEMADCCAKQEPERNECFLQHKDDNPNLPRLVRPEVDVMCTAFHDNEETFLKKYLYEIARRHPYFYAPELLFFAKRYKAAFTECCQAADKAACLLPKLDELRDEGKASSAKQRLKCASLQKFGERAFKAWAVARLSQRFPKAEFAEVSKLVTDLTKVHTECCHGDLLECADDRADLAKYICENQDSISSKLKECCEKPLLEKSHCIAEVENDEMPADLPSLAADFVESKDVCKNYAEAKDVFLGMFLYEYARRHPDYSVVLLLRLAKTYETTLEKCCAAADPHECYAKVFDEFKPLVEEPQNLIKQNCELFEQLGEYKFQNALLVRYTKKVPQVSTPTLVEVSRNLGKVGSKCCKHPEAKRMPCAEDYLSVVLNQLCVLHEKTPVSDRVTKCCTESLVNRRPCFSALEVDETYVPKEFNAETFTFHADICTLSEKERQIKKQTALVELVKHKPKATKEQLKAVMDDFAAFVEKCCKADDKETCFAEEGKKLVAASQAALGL

Compound	IC50 [1, 11] [µM]	IC50 [1, 12] [µM]	IC50 [2, 13] [µM]	IC50 [2, 14] [µM]	IC50 [3, 15] [µM]	IC50 [3, 16] [µM]	Kapp (apparent HSA binding constant) [4]	binding number n for HSA binding [4]	log P [6]	further results
Cc1ccnc(-c2cc(CCCCCCCCCCCCc3ccnc(-c4cc(C)ccn4)c3)ccn2)c1.[Ru+2].c1cnc2c(c1)ccc1cccnc12 [α-phen-12, cis-α-[Ru(phen)(bb12)]^2+]	92 ± 26	85 ± 16	94 ± 13	19 ± 3	227 ± 22	177 ± 17	0.43 ± 0.17 × 10^5 (M)^−1	0.95	−0.9	fold more toxic than α-Me4phen-7 ([5]; eukaryotic cells, from IC50 values): 2–5 fold; MIC [7]: 1 to 10 µM
N.N.[Cl][Pt][Cl] [Cisplatin, reference compound]	> 400	146 ± 8	314 ± 8	12 ± 3						
Cc1cnc2c(ccc3c(C)c(C)cnc32)c1C.Cc1cnc2c(ccc3c(C)c(C)cnc32)c1C.Cc1cnc2c(ccc3c(C)c(C)cnc32)c1C.[Ru+2] [(Me4phen)3, [Ru(Me4phen)3]^2+, reference compound]	157 ± 25	111 ± 23	253 ± 60	72 ± 31	220 ± 43	265 ± 13	0.12 ± 0.03 × 10^5 (M)^−1	0.81		
Cc1ccnc(-c2cc(CCCCCCCc3ccnc(-c4cc(C)ccn4)c3)ccn2)c1.O=[N+]([O-])c1cc2cccnc2c2ncccc12.[Ru+2] [α-NO2phen-7, cis-α-[Ru(NO2phen)(bb7)]^2+]	> 400	> 400	141 ± 29	99 ± 29	121 ± 18	126 ± 6	23.5 ± 4.9 × 10^5 (M)^−1	1.27	−1.58	
Cc1ccnc(-c2cc(CCCCCCCc3ccnc(-c4cc(C)ccn4)c3)ccn2)c1.Cc1cnc2c(ccc3c(C)c(C)cnc32)c1C.[Ru+2] [α-Me4phen-7, cis-α-[Ru(Me4phen)(bb7)]^2+]	> 400	168 ± 5	162 ± 14	142 ± 8	> 400	> 400	4.6 ± 0.90 × 10^5 (M)^−1	1.14	−1.33	fold higher HSA binding affinity on Q[10]-encapsulation ([4]; Q[10]-encapsulated vs free): 3–4 fold; fold tighter HSA binding than α-phen-12 and α-Me2phen-7 ([4]; from Kapp): approximately 10 fold; level of cellular accumulation, free vs Q[10]-encapsulated (luminescence intensity per cell) ([8]; BHK cells, […] μM, 1-h incubation): no difference; nuclear localization in BHK cells ([8]; preliminary confocal microscopy): did not localize in the nucleus; fold decrease in toxicity by Q[10]-encapsulation ([5]; based on 48-h incubation toxicity to BHK and Hep-G2 cells): 2–3 fold; fold less toxic to eukaryotic cells than α-phen-12 ([5]; from IC50 values): 2–5 fold; MIC [7]: 1 to 10 µM; fold lower antimicrobial activity to Gram-negative bacteria than Rubb12 ([7]; ref Sun et al.): ≈ 2 fold
Cc1ccnc(-c2cc(CCCCCCCCCCCCc3ccnc(-c4cc(C)ccn4)c3)ccn2)c1.[Ru+2].[Ru+2].c1cnc2c(c1)ccc1cccnc12.c1cnc2c(c1)ccc1cccnc12.c1cnc2c(c1)ccc1cccnc12.c1cnc2c(c1)ccc1cccnc12 [Rubb12, [{Ru(phen)2}2{μ-bb12}]^4+, reference compound]	44 ± 9	41 ± 7	55 ± 12	15 ± 5	10 ± 1	8 ± 3				Kapp (HSA binding), previously determined [9]: 470000 M⁻¹; effect of Q[10]-binding on HSA binding affinity [9]: decreased the affinity; amount of complex in serum after intravenous injection [10]: decreased very rapidly
Cc1ccnc(-c2cc(CCCCCCCc3ccnc(-c4cc(C)ccn4)c3)ccn2)c1.[Ru+2].c1cnc2c(c1)ccc1cccnc12 [α-phen-7, cis-α-[Ru(phen)(bb7)]^2+]	> 400	250 ± 42	319 ± 26	312 ± 15	> 400	219 ± 43	0.10 ± 0.00 × 10^5 (M)^−1	0.80		
cis-α-[Ru(Me2phen)(bb7)]^2+ [α-Me2phen-7]	> 400	250 ± 46	358 ± 18	151 ± 30	> 400	> 400	0.29 ± 0.13 × 10^5 (M)^−1	0.91		
